The text below walks through data of PubChem BioAssay (NCI).

Several values for one entry are separate records, joined by “and”; a condition that tells them apart may be missing. Equal values may be shown once.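 Method: 48-hour compound exposure of cells in 96-well plates, five concentrations, linear interpolation of endpoints. Here, GI50 denotes the concentration required for 50% inhibition of growth. The concentration for full growth arrest is given as TGI.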

Test systems include OVCAR-8 ovarian; HT29 colon; UACC-62 melanoma; HCC-2998 colon; HOP-62 NSCLC; SF-268 CNS; HOP-92 NSCLC; MCF7 breast; MDA-MB-435.
What all share (experiment): growth of human tumour cells (NCI), 48 h

Turning to `O=[N+]([O-])c1ccc(C[P+](c2ccccc2)(c2ccccc2)c2ccccc2)cc1`, the TGI was more than 100 µM with OVCAR-8 ovarian; more than 100 µM with HT29 colon; 95.6 µM in the test with UACC-62 melanoma; more than 100 µM in the test on HCC-2998 colon; more than 100 µM in the test with HOP-62 NSCLC.
For the compound `CC1=C(c2ccccc2)C(c2ccccc2)=C(c2ccccc2)C2(c3ccccc3)C(=O)C(C)CN12` (stereo unspecified), the TGI with OVCAR-8 ovarian was 59.2 µM; with HT29 colon it was more than 100 µM; with UACC-62 melanoma, more than 100 µM; in the test with HCC-2998 colon it was more than 100 µM; in the test on SF-268 CNS, more than 100 µM; in the test with HOP-62 NSCLC it was more than 100 µM.
Take `CCc1ccccc1NC(=O)C1=C(C)NC(C)=C(C(=O)Nc2ccccc2CC)C1c1ccccc1Cl`: the TGI with OVCAR-8 ovarian, with HT29 colon, with HCC-2998 colon, with SF-268 CNS, with HOP-92 NSCLC and with HOP-62 NSCLC was more than 100 µM throughout.
Take `N#CC1(C#N)C2(c3ccccc3)OC(c3ccccc3)(c3cc4ccccc4cc32)C1(C#N)C#N`: the TGI was determined as 26.8 µM in the test with OVCAR-8 ovarian; 29.3 µM in the test on HT29 colon; 37 µM in the test with UACC-62 melanoma; 33.8 µM with HCC-2998 colon; 39.5 µM in the test with SF-268 CNS; 27.8 µM in the test with MCF7 breast. For the same compound, the TGI was found to be 7.05 µM with HOP-92 NSCLC, 36.4 µM with HOP-62 NSCLC and 31.7 µM with MDA-MB-435.
For the compound `CCCCCCCCCCCc1nnc(N)o1`, the TGI with OVCAR-8 ovarian, in the test with HT29 colon, in the test on UACC-62 melanoma, in the test on HCC-2998 colon, in the test on SF-268 CNS and in the test on HOP-92 NSCLC was more than 100 µM in each case. The compound further showed a TGI in the test on HOP-62 NSCLC of more than 100 µM.
Regarding `O=C(O)C1=C(O)C(C(=O)O)C23CCCCCCCCCCC12C(C(=O)O)C(O)=C3C(=O)O` (stereo unspecified), the TGI in the test on OVCAR-8 ovarian, with HT29 colon, with HCC-2998 colon, in the test on SF-268 CNS and in the test on HOP-92 NSCLC was more than 100 µM each time.
As to `COC1=C(N)C(=O)c2nc(C)ccc2C1=O`, the TGI in the test with OVCAR-8 ovarian turned out to be 12.4 µM; in the test with HT29 colon, 3.74 µM; in the test with UACC-62 melanoma, 3.2 µM; in the test with HCC-2998 colon, 14.5 µM; with SF-268 CNS, 4.17 µM; in the test on HOP-92 NSCLC, 22.1 µM. The compound further returned a TGI in the test on HOP-62 NSCLC of 2.94 µM.
Regarding `Cc1nnn[n-]1.N.N.N.N.N.[Cl-].[Co+3]`, the GI50 with OVCAR-8 ovarian, in the test on HT29 colon, with UACC-62 melanoma, in the test on HCC-2998 colon, in the test on SF-268 CNS and with HOP-92 NSCLC was more than 100 µM in each case. Besides, in the test on HOP-62 NSCLC, the GI50 was more than 100 µM. Besides, the TGI in the test with OVCAR-8 ovarian, in the test with HT29 colon, in the test with UACC-62 melanoma, in the test with HCC-2998 colon, with SF-268 CNS and in the test on HOP-92 NSCLC was more than 100 µM throughout. This compound gave a TGI in the test on HOP-62 NSCLC of more than 100 µM.
`COC(=O)CC1C[C@H](C#N)N(C(=O)c2ccccc2)C[C@@H]1CC[N+](=O)[O-]` (stereo partly specified): the TGI in the test with OVCAR-8 ovarian, in the test on HT29 colon, in the test on UACC-62 melanoma, with HCC-2998 colon, with SF-268 CNS and in the test with HOP-92 NSCLC was more than 100 µM throughout. The compound further had a TGI with HOP-62 NSCLC of more than 100 µM.
For `O/N=C1/C(=C/c2ccc3c(c2)OCO3)CCCC1C(NO)c1ccc2c(c1)OCO2` (stereo unspecified), the TGI is 67.1 µM in the test on OVCAR-8 ovarian; 30.4 µM in the test on HT29 colon; 39.8 µM with UACC-62 melanoma; 55.5 µM with HCC-2998 colon; more than 100 µM in the test on SF-268 CNS; 53.7 µM in the test on HOP-62 NSCLC.
Consider `CS(=O)(=O)OC1CCC2(C#N)CCC1C2=O` (stereo unspecified), for which the TGI with OVCAR-8 ovarian, with HT29 colon, with UACC-62 melanoma, in the test with HCC-2998 colon, in the test with SF-268 CNS and in the test with HOP-62 NSCLC was more than 100 µM in each case.
On to `O=C1N(C2CCCCC2)CC12CCCCC2`, for which the TGI in the test on OVCAR-8 ovarian, with UACC-62 melanoma, in the test on HCC-2998 colon, in the test with SF-268 CNS, with HOP-92 NSCLC and in the test on HOP-62 NSCLC was more than 100 µM in each case.
On to `CN(O)C(=O)SCC(NC(=O)CCC(N)C(=O)O)C(=O)NCC(=O)O` (stereo unspecified), for which the GI50 in the test on OVCAR-8 ovarian is more than 2000 µM; in the test with HT29 colon it was more than 2000 µM; in the test on UACC-62 melanoma it was more than 2000 µM; in the test with SF-268 CNS, more than 2 µM; with HOP-92 NSCLC it was more than 2000 µM; in the test with HOP-62 NSCLC it was more than 2000 µM. In addition, the TGI was more than 2000 µM in the test with OVCAR-8 ovarian; more than 2000 µM in the test with HT29 colon; more than 2000 µM with UACC-62 melanoma; more than 2 µM in the test on HCC-2998 colon; more than 2000 µM in the test on SF-268 CNS; more than 2000 µM in the test with HOP-92 NSCLC. In the test on HOP-62 NSCLC, the TGI was > 2 µM and 313 µM and > 2000 µM.
`CC1=C(C(=O)Nc2cc(=O)n(C)c(=O)n2C)C(c2ccco2)C(C(=O)Nc2cc(=O)n(C)c(=O)n2C)=C(C)N1`: the TGI in the test on OVCAR-8 ovarian, in the test with HT29 colon, in the test with HCC-2998 colon, in the test on SF-268 CNS, with HOP-92 NSCLC and in the test on HOP-62 NSCLC was more than 100 µM throughout.
`NC(=O)C(=O)N/N=C1\C(=O)N(c2ccc(Cl)cc2Cl)C(=O)C1C(=O)Nc1ccc(Cl)cc1Cl` (stereo unspecified): the TGI in the test on OVCAR-8 ovarian, with HT29 colon, with UACC-62 melanoma, with HCC-2998 colon, in the test on SF-268 CNS and with HOP-92 NSCLC was more than 100 µM each time. This compound registered a TGI in the test on HOP-62 NSCLC of more than 100 µM.
`CC1(C)C2CCC13C(=O)C1OC3(C2)C2C(=O)c3cc4ccccc4cc3C(=O)C12` (stereo unspecified): the GI50 in the test on OVCAR-8 ovarian was 33.8 µM; in the test with HT29 colon, 11.3 µM; in the test with HCC-2998 colon, 8.53 µM; in the test on SF-268 CNS, 5.29 µM; with MCF7 breast, 6.17 µM; in the test on HOP-92 NSCLC it was 4.19 µM. Besides, the GI50 is 7.64 µM in the test with HOP-62 NSCLC and 8.58 µM in the test with MDA-MB-435. Further, the TGI with OVCAR-8 ovarian is more than 100 µM; in the test on HT29 colon it was more than 100 µM; in the test with HCC-2998 colon it was more than 100 µM; with SF-268 CNS it was 82.4 µM; with MCF7 breast it was more than 100 µM; in the test on HOP-92 NSCLC it was 27.5 µM. The TGI in the test with HOP-62 NSCLC is 45.3 µM; with MDA-MB-435 it was more than 100 µM.
